According to patent US20120046353A1 (priority 2010, published 2012):
pIC50: −log10 of the molar value. “Also recorded” adds a separate entry of the source.

What was measured:
neuraminidase = type: biochemical
[1] = target: neuraminidase of swine influenza virus (H1N1) (Influenza A virus, UniProt Q20F35); type: biochemical, swine influenza virus A/Sw/Kor/CAN1/04 (H1N1)
[2] = target: neuraminidase of novel influenza virus (Influenza A virus, UniProt C3W5S3); type: biochemical, novel influenza (H1N1) virus
[3] = target: neuraminidase of avian influenza virus (H9N2) (Influenza A virus, UniProt A9LRT3); test: biochemical; parameters: species or system avian influenza virus A/chicken/Korea/01310/2001(H9N2)
[4] = IC50 for neuraminidase of avian influenza virus (H9N2)

COc1c(C)c(O)c(C)c(O)c1C(=O)/C=C/c1ccc(O)cc1 [Compound 4, 4,2′,4′-trihydroxy-6′-methoxy-3′,5′-dimethylchalcone]
Type of inhibition from Lineweaver Burk plots (neuraminidase): non-competitive inhibitor | Inhibitory mechanism against neuraminidase of swine influenza virus [1]: non-competitive inhibitor that reversibly inhibits; also recorded: noncompetitive inhibitor | Inhibitory activity against neuraminidase of novel influenza virus, in words [2]: excellent inhibitory activity

COc1c(C)c(O)c(C)c(O)c1C(=O)/C=C/c1ccccc1 [Compound 5, 2′,4′-dihydroxy-6′-methoxy-3′,5′-dimethylchalcone]
Type of inhibition from Lineweaver Burk plots (neuraminidase): non-competitive inhibitor | Inhibitory activity against neuraminidase of novel influenza virus, in words [2]: excellent inhibitory activity

COc1c(C)c(O)c2c(c1C)OC(c1ccccc1)CC2=O (centres unmarked) [Compound 6, 5-hydroxy-7-methoxy-6,8-dimethylflavanone]
pIC50 [3, 4]: < 3.30

COc1cc(O)c(C)c(O)c1C(=O)/C=C/c1ccccc1 [Compound 8, 2′,4′-dihydroxy-3′-methyl-6′-methoxychalcone]
Type of inhibition from Lineweaver Burk plots (neuraminidase): non-competitive inhibitor | Inhibitory activity against neuraminidase of novel influenza virus, in words [2]: excellent inhibitory activity

COc1cc(O)c(C)c2c1C(=O)CC(c1ccccc1)O2 (centres unmarked) [Compound 11, 7-hydroxy-5-methoxy-8-methylflavanone]
pIC50 [3, 4]: < 3.28

Cc1c(O)cc(O)c2c1OC(c1ccccc1)CC2=O (centres unmarked) [Compound 12, 8-methylpinocembrin]
pIC50 [3, 4]: < 3.26

COc1c(C)c(O)c(C)c(O)c1C(=O)/C=C/c1ccccc1O [Compound 14, 2,2′,4′-trihydroxy-6′-methoxy-3′,5′-dimethylchalcone]
Type of inhibition from Lineweaver Burk plots (neuraminidase): non-competitive inhibitor | Inhibitory activity against neuraminidase of novel influenza virus, in words [2]: excellent inhibitory activity

CCOC(=O)C1=C[C@@H](OC(CC)CC)[C@H](NC(C)=O)[C@@H](N)C1 [Tamiflu, oseltamivir phosphate, reference compound]
pIC50 [3, 4]: 7.87 | pIC50 ([3]; IC50 of Tamiflu against neuraminidase of avian influenza virus in combination with compound 4): 8.83
